Reference: PubChem BioAssay (NCI)
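Briefly, cells in 96-well plates were exposed to five compound concentrations for 48 h, and endpoints were estimated by linear interpolation. Here, GI50 denotes the concentration required for 50% inhibition of growth. The concentration for full growth arrest is given as TGI.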

Tests used:
Assay in all cases: growth of human tumour cells (NCI), 48 h
[1] = test system: HOP-92 NSCLC
[2] = test system: UACC-62 melanoma
[3] = test system: HS 578T breast
[4] = test system: OVCAR-4 ovarian
[5] = test system: SNB-75 CNS
[6] = test system: U251 CNS
[7] = test system: HCT-116 colon
[8] = test system: NCI/ADR-RES ovarian
[9] = test system: SF-268 CNS
[10] = test system: IGROV1 ovarian
[11] = test system: HT29 colon
[12] = test system: SK-MEL-2 melanoma
[13] = test system: MDA-MB-231 breast
[14] = test system: MDA-MB-468 breast
[15] = test system: CCRF-CEM leukemia
[16] = test system: SK-OV-3 ovarian
[17] = test system: SF-539 CNS
[18] = test system: COLO 205 colon
[19] = test system: KM12 colon
[20] = test system: HCC-2998 colon
[21] = test system: BT-549 breast
[22] = test system: SNB-19 CNS
[23] = test system: OVCAR-3 ovarian
[24] = test system: RXF 393 renal
[25] = test system: A549 NSCLC
[26] = test system: LOX IMVI melanoma
[27] = test system: SN12C renal
[28] = test system: HL-60(TB) leukemia
[29] = test system: M14 melanoma
[30] = test system: CAKI-1 renal
[31] = test system: SK-MEL-5 melanoma
[32] = test system: NCI-H23 lung
[33] = test system: OVCAR-5 ovarian
[34] = test system: EKVX NSCLC
[35] = test system: K-562 leukemia
[36] = test system: MCF7 breast
[37] = test system: ACHN renal
[38] = test system: T-47D breast
[39] = test system: TK-10 renal
[40] = test system: DU-145 prostate
[41] = test system: SK-MEL-28 melanoma
[42] = test system: NCI-H522 lung
[43] = test system: MDA-MB-435
[44] = test system: RPMI-8226 leukemia
[45] = test system: MOLT-4 leukemia
[46] = test system: HOP-62 NSCLC
[47] = test system: UO-31 renal
[48] = test system: SW-620 colon
[49] = test system: NCI-H460 lung
[50] = test system: SR leukemia
[51] = test system: UACC-257 melanoma
[52] = test system: 786-0 renal
[53] = test system: MALME-3M melanoma
[54] = test system: OVCAR-8 ovarian
[55] = test system: PC-3 prostate
[56] = test system: SF-295 CNS
[57] = test system: NCI-H226 lung
[58] = test system: A498 renal
[59] = test system: HCT-15 colon

**Q.** Which GI50 [1] does the source give for `COc1ccc(/C=C/c2nc3ccccc3c(=O)n2CC(=O)Nc2ccccc2)cc1` here?
**A.** 2.78 µM

**Q.** What about the TGI [1] of the same compound?
**A.** 13.3 µM

**Q.** And the GI50 [2]?
**A.** > 62.4 µM

**Q.** What about the TGI [2] of the same compound?
**A.** > 100 µM

**Q.** And the GI50 [3]?
**A.** 2.79 µM

**Q.** What about the TGI [3] of the same compound?
**A.** > 92.5 µM

**Q.** What about the GI50 [4] of the same compound?
**A.** 0.734 µM

**Q.** And the GI50 [5]?
**A.** 1.27 µM

**Q.** What about the TGI [5] of the same compound?
**A.** 4.97 µM

**Q.** What about the GI50 [6] of the same compound?
**A.** 0.972 µM

**Q.** And the TGI [6]?
**A.** 10.9 µM

**Q.** What about the GI50 [7] of the same compound?
**A.** 1.26 µM

**Q.** And the TGI [7]?
**A.** > 39.4 µM

**Q.** What about the GI50 [8] of the same compound?
**A.** 4.64 µM

**Q.** What about the TGI [8] of the same compound?
**A.** > 100 µM

**Q.** What about the GI50 [9] of the same compound?
**A.** 19.1 µM

**Q.** What about the TGI [9] of the same compound?
**A.** > 100 µM

**Q.** And the GI50 [10]?
**A.** 12.6 µM

**Q.** What about the TGI [10] of the same compound?
**A.** > 100 µM

**Q.** What about the GI50 [11] of the same compound?
**A.** > 100 µM

**Q.** And the TGI [11]?
**A.** > 100 µM

**Q.** And the GI50 [12]?
**A.** > 77.8 µM

**Q.** And the TGI [12]?
**A.** > 100 µM

**Q.** What about the GI50 [13] of the same compound?
**A.** 2.01 µM

**Q.** And the TGI [13]?
**A.** 7.54 µM

**Q.** What about the GI50 [14] of the same compound?
**A.** 6.23 µM

**Q.** What about the TGI [14] of the same compound?
**A.** > 53.7 µM

**Q.** What about the GI50 [15] of the same compound?
**A.** > 100 µM

**Q.** What about the TGI [15] of the same compound?
**A.** > 100 µM

**Q.** And the GI50 [16]?
**A.** 2.98 µM

**Q.** And the TGI [16]?
**A.** 18.7 µM

**Q.** And the GI50 [17]?
**A.** 3.42 µM

**Q.** And the TGI [17]?
**A.** 14.5 µM

**Q.** And the GI50 [18]?
**A.** > 37.3 µM

**Q.** And the TGI [18]?
**A.** > 77.7 µM

**Q.** And the GI50 [19]?
**A.** > 100 µM

**Q.** And the TGI [19]?
**A.** > 100 µM

**Q.** And the GI50 [20]?
**A.** > 100 µM

**Q.** What about the TGI [20] of the same compound?
**A.** > 100 µM

**Q.** And the GI50 [21]?
**A.** > 74.6 µM

**Q.** What about the TGI [21] of the same compound?
**A.** > 100 µM

**Q.** What about the GI50 [22] of the same compound?
**A.** 3.74 µM

**Q.** And the TGI [22]?
**A.** > 73.9 µM

**Q.** And the GI50 [23]?
**A.** 3.91 µM

**Q.** What about the TGI [23] of the same compound?
**A.** > 100 µM

**Q.** What about the GI50 [24] of the same compound?
**A.** 2.23 µM

**Q.** And the TGI [24]?
**A.** 10.6 µM

**Q.** And the GI50 [25]?
**A.** 0.731 µM

**Q.** What about the TGI [25] of the same compound?
**A.** > 42.7 µM

**Q.** And the GI50 [26]?
**A.** 4.38 µM

**Q.** And the TGI [26]?
**A.** > 100 µM

**Q.** What about the GI50 [27] of the same compound?
**A.** 1.82 µM

**Q.** What about the TGI [27] of the same compound?
**A.** > 36.6 µM

**Q.** What about the GI50 [28] of the same compound?
**A.** > 100 µM

**Q.** And the TGI [28]?
**A.** > 100 µM

**Q.** What about the GI50 [29] of the same compound?
**A.** 27 µM

**Q.** And the TGI [29]?
**A.** > 51 µM

**Q.** What about the GI50 [30] of the same compound?
**A.** 1.7 µM

**Q.** What about the TGI [30] of the same compound?
**A.** > 23.9 µM

**Q.** What about the GI50 [31] of the same compound?
**A.** > 91.4 µM

**Q.** And the TGI [31]?
**A.** > 100 µM

**Q.** What about the GI50 [32] of the same compound?
**A.** 6.01 µM

**Q.** What about the TGI [32] of the same compound?
**A.** > 62.4 µM

**Q.** And the GI50 [33]?
**A.** 6.47 µM

**Q.** What about the TGI [33] of the same compound?
**A.** > 100 µM

**Q.** What about the GI50 [34] of the same compound?
**A.** > 69.4 µM

**Q.** And the TGI [34]?
**A.** > 100 µM

**Q.** And the GI50 [35]?
**A.** > 100 µM

**Q.** And the TGI [35]?
**A.** > 100 µM

**Q.** And the GI50 [36]?
**A.** > 26 µM

**Q.** What about the TGI [36] of the same compound?
**A.** > 100 µM

**Q.** What about the GI50 [37] of the same compound?
**A.** 0.718 µM

**Q.** And the TGI [37]?
**A.** 2.49 µM

**Q.** And the GI50 [38]?
**A.** 1.8 µM

**Q.** And the TGI [38]?
**A.** > 28.9 µM

**Q.** And the GI50 [39]?
**A.** 2.05 µM

**Q.** What about the TGI [39] of the same compound?
**A.** 5.43 µM

**Q.** What about the GI50 [40] of the same compound?
**A.** > 100 µM

**Q.** And the TGI [40]?
**A.** > 100 µM

**Q.** And the GI50 [41]?
**A.** > 100 µM

**Q.** What about the TGI [41] of the same compound?
**A.** > 100 µM

**Q.** And the GI50 [42]?
**A.** 16.8 µM

**Q.** And the TGI [42]?
**A.** > 100 µM

**Q.** And the GI50 [43]?
**A.** > 93.4 µM

**Q.** What about the TGI [43] of the same compound?
**A.** > 100 µM

**Q.** What about the GI50 [44] of the same compound?
**A.** > 100 µM

**Q.** What about the TGI [44] of the same compound?
**A.** > 100 µM

**Q.** What about the GI50 [45] of the same compound?
**A.** > 100 µM

**Q.** What about the TGI [45] of the same compound?
**A.** > 100 µM

**Q.** What about the GI50 [46] of the same compound?
**A.** 4.31 µM

**Q.** And the TGI [46]?
**A.** 19.2 µM

**Q.** What about the GI50 [47] of the same compound?
**A.** 1.44 µM

**Q.** What about the TGI [47] of the same compound?
**A.** 3.64 µM

**Q.** And the GI50 [48]?
**A.** > 21.3 µM

**Q.** And the TGI [48]?
**A.** > 100 µM

**Q.** What about the GI50 [49] of the same compound?
**A.** 2.25 µM

**Q.** What about the TGI [49] of the same compound?
**A.** > 100 µM

**Q.** And the GI50 [50]?
**A.** > 100 µM

**Q.** And the TGI [50]?
**A.** > 100 µM

**Q.** And the GI50 [51]?
**A.** > 85.1 µM

**Q.** What about the TGI [51] of the same compound?
**A.** > 100 µM

**Q.** What about the GI50 [52] of the same compound?
**A.** 1.19 µM

**Q.** And the TGI [52]?
**A.** 3.18 µM

**Q.** What about the GI50 [53] of the same compound?
**A.** 5.2 µM

**Q.** And the TGI [53]?
**A.** 55.9 µM

**Q.** And the GI50 [54]?
**A.** 4.74 µM

**Q.** And the TGI [54]?
**A.** > 100 µM

**Q.** And the GI50 [55]?
**A.** > 100 µM

**Q.** What about the TGI [55] of the same compound?
**A.** > 100 µM

**Q.** And the GI50 [56]?
**A.** 2.48 µM

**Q.** And the TGI [56]?
**A.** 30.8 µM

**Q.** What about the GI50 [57] of the same compound?
**A.** 2.42 µM

**Q.** And the TGI [57]?
**A.** 16.4 µM

**Q.** And the GI50 [58]?
**A.** 2.23 µM

**Q.** And the TGI [58]?
**A.** 5.2 µM

**Q.** And the GI50 [59]?
**A.** > 100 µM

**Q.** And the TGI [59]?
**A.** > 100 µM
